In patent publication US20250163056A1, “NONMUSCLE MYOSIN II INHIBITORS” (The University of Florida Research Foundation, Inc., priority 2018, published 2025):

Experiments:
[1] = Photostability, percentage remaining undegraded under illumination or in the dark; conditions: for Photostability 4 hours: percentage remaining undegraded after 4 hours illumination; for Photostability 24 hours: percentage remaining undegraded after 24 hours illumination; for Photostability Dark (24 h): percentage remaining undegraded in the dark
Bovine cardiac myosin = Bovine cardiac myosin (Bos taurus (Bovine), UniProt Q9BE39); assay: Cardiac muscle myosin II actin-activated ATPase assay (NADH-coupled); assay type: biochemical; design: key to Ratio CMMII:NMII Ki/EC50: NMII-sel: no Ki value for cardiac myosin II could be determined; the compounds had no detectable inhibitory properties versus the cardiac myosin II; conditions: for Ki: 300 nM cardiac myosin, 10 μM actin, 25° C., read-out: CMMII KI; for Ratio CMMII:NMII Ki/EC50: cardiac myosin II Ki over nonmuscle myosin II EC50
Procedure, shortened: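 Inhibitory constants came from a quadratic one-to-one binding fit of 16-point dose-responses (highest final 50 uM, triplicate). Rates were NADH-calibrated fluorescence slopes over 30 min at 25° C, with 300 nM bovine cardiac myosin, 10 μM actin and 1 mM ATP coupled through PK/LDH in pH 7.0 MOPS buffer.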

Rabbit skeletal myosin = assay: Skeletal muscle myosin II actin-activated ATPase assay; assay type: biochemical; conditions: 20 nM skeletal muscle myosin II; read-out: SKMMII KI
Procedure, shortened: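 Inhibitory constants come from a quadratic one-site fit of 16-point, triplicate dose-response data, highest compound concentration 50 uM. Rates are slopes of NADH fluorescence decline over 30 min, coupling ATP turnover of 20 nM rabbit skeletal myosin II with 10 μM actin and 1 mM ATP via PK/LDH, pH 7.0, 25 °C.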

Sequence of Bovine cardiac myosin (Q9BE39 whole entry): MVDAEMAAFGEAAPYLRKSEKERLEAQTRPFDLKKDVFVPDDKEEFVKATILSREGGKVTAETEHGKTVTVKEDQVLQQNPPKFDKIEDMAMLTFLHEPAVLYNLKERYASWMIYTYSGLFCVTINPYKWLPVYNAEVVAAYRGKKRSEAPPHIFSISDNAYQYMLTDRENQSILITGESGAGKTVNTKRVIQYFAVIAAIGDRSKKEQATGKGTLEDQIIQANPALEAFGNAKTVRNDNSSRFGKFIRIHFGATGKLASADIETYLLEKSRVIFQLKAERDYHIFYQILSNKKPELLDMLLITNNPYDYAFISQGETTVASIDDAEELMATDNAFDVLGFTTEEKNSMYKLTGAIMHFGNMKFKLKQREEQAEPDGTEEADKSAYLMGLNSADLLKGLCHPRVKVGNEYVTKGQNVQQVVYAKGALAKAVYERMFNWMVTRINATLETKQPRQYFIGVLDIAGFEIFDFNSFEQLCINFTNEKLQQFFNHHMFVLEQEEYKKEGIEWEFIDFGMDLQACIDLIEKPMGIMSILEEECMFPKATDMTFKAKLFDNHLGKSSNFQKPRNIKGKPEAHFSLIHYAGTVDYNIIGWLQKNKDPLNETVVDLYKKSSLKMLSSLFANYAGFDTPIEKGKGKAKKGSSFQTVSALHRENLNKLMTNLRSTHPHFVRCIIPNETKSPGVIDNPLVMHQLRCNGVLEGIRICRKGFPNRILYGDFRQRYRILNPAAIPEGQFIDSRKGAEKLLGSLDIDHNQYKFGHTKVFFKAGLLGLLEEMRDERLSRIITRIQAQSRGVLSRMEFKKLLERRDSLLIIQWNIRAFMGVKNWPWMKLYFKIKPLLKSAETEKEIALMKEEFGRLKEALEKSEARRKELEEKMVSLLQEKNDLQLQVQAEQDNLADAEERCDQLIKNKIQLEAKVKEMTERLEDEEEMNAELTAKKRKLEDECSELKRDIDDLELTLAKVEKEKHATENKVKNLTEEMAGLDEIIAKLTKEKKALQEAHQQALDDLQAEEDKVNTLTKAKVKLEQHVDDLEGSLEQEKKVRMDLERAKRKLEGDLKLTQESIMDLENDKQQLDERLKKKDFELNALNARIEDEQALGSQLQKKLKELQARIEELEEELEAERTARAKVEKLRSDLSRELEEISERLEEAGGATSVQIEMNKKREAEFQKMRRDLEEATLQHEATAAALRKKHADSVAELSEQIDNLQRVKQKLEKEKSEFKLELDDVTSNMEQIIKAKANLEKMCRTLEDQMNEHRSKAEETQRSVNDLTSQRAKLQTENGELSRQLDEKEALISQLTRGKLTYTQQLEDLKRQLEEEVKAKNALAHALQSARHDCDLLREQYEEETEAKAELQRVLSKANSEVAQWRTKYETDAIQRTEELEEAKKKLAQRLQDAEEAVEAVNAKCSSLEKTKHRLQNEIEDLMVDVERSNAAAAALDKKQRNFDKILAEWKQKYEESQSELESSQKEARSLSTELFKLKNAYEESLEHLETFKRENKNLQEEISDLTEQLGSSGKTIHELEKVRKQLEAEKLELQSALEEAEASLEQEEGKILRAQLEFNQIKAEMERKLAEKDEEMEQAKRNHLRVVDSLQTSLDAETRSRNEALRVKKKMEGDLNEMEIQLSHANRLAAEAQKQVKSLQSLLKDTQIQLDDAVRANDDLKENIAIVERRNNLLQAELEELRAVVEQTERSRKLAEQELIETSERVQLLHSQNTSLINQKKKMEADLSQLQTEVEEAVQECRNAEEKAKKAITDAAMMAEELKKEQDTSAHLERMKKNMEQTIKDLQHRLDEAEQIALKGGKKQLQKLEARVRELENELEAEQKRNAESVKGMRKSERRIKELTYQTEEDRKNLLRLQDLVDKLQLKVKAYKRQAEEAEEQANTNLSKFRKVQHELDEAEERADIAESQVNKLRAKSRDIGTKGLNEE
Sequence of Bovine cardiac myosin (P85100 whole entry partner): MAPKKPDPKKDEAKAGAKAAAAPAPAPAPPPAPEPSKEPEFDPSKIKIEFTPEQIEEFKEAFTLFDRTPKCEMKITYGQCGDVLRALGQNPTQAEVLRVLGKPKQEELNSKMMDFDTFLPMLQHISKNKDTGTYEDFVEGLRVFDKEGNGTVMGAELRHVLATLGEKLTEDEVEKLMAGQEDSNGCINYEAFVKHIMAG
Sequence of Bovine cardiac myosin (Q3SZE5 whole entry partner): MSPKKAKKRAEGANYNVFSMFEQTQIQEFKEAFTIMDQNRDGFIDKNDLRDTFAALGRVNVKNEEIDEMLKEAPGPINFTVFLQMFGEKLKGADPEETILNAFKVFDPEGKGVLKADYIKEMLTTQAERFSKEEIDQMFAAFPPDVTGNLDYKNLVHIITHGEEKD

Structure (SMILES) | Photostability 4 hours [1] | Photostability 24 hours [1] | Photostability Dark (24 h) [1] | Ki (Bovine cardiac myosin) | Ratio CMMII:NMII Ki/EC50 (Bovine cardiac myosin) | Ki (Rabbit skeletal myosin)
Cc1ccc2c(c1)C(=O)[C@]1(O)CCN(c3ccc4cccnc4c3)C1=N2 [BPN-0027039] | 89.8% | 31.3% | 95.9% | 68 µM | 3.1 | 4.6 µM
Cc1ccc2c(c1)C(=O)[C@]1(O)CCN(c3ccc4ncccc4c3)C1=N2 [BPN-0027040] | 94.8% | 21.4% | 95.7% | 37 µM | 30.8 | 2.6 µM
Cc1ccc2c(c1)C(=O)[C@]1(O)CCN(c3ccc4ccncc4c3)C1=N2 [BPN-0027042] | 92.7% | 13.8% | >99% |  | NMII-sel | 10 µM
O=C1c2c(sc3c2CCCC3)N=C2N(c3ccccc3)CC[C@@]12O [BPN-0027043] | 97.7% | 72.3% | >99% |  | NMII-sel | 15 µM
Cc1cc2c(cc1C(F)(F)F)N=C1N(c3ccc(C#N)cc3)CC[C@@]1(O)C2=O [BPN-0027071] | >99% | 95.3% | >99% |  | NMII-sel | 20 µM
Cc1cc2c(s1)C(=O)[C@]1(O)CCN(c3ccc(C#N)c(C)c3)C1=N2 [BPN-0027072] | >99% | >99% | >99% | 31 µM | 3.1 | 5 µM
Cc1cc2c(s1)C(=O)[C@]1(O)CCN(c3cccc(Br)c3)C1=N2 [BPN-0027074] | 95.8% | 93.4% | 94.5% | 77 µM | 3.7 | 16 µM
Cc1cc2c(cc1C(F)(F)F)N=C1N(c3ccc(Cl)cc3)CC[C@@]1(O)C2=O [BPN-0027080] | 98.1% | 88.1% | >99% |  | NMII-sel | 4.8 µM
Cc1sc2c(c1C)C(=O)[C@]1(O)CCN(c3ccc(I)cc3)C1=N2 [BPN-0027081] | 97.0% | 46.3% | 96.9% | 9 µM | 8.2 | 0.29 µM
Cc1cc2c(cc1C(F)(F)F)N=C1N(c3ccc4ccoc4c3)CC[C@@]1(O)C2=O [BPN-0027108] | >99% | 97.0% | >99% |  | NMII-sel | 10 µM
Cc1cc2c(cc1C)C(=O)[C@]1(O)CCN(c3ccc(I)cc3)C1=N2 [BPN-0027109] | 82.5% | 29.4% | >99% | 11 µM | 21.2 | 0.27 µM
Cc1nc2cc(N3CC[C@@]4(O)C(=O)c5cc(C)c(C)cc5N=C34)ccc2o1 [BPN-0027118] | 68.6% | 9.2% | 94.4% | 5.5 µM | 4.6 | 0.68 µM
Cc1cc2c(cc1C)C(=O)[C@]1(O)CCN(c3ccc4scnc4c3)C1=N2 [BPN-0027121] | 75.6% | 6.5% | 98.6% | 19 µM | 7.6 | 2.7 µM
Cc1cc2c(cc1C)C(=O)[C@]1(O)CCN(c3ccc4ncsc4c3)C1=N2 [BPN-0027122] | 69.5% | 5.3% | 97.1% | 45 µM | 26.5 | 5.9 µM
Cn1ncc2c1N=C1N(c3ccccc3)CC[C@@]1(O)C2=O [BPN-0027159] | 89.9% | 22.5% | >99% |  | NMII-sel | 330 µM
Cc1ccc2c(c1)C(=O)[C@]1(O)CCN(c3ccc4ncc(C)cc4c3)C1=N2 [BPN-0027160] | 95.5% | 73.0% | >99% | 30 µM | 10.3 | 0.2 µM

Structure (SMILES) | Photostability 4 hours [1] | Photostability 24 hours [1] | Photostability Dark (24 h) [1] | Ki (Bovine cardiac myosin) | Ratio CMMII:NMII Ki/EC50 (Bovine cardiac myosin) | Ki (Rabbit skeletal myosin)
Cc1cc2cc(N3CC[C@@]4(O)C(=O)c5cc(C)c(C)cc5N=C34)ccc2cn1 [BPN-0027161] | 78.6% | 60.2% | 98.3% | 24 µM | 21.8 | 0.24 µM
Cc1cc2c(s1)C(=O)[C@]1(O)CCN(c3ccc(C#N)c(Cl)c3)C1=N2 [BPN-0027162] | 98.5% | 95.9% | >99% | 52 µM | 6.6 | 4.5 µM
Cc1ccc2c(c1)C(=O)[C@]1(O)CCN(c3ccc(CO)c(Cl)c3)C1=N2 [BPN-0027163] | 95.0% | 44.6% | >99% | 21 µM | 5.0 | 5.9 µM
Cc1cc2c(s1)C(=O)[C@]1(O)CCN(c3ccc4ncccc4c3)C1=N2 [BPN-0027181] | >99% | 99.0% | >99% | 91 µM | 33.7 | 3.1 µM
Cc1cc2c(cc1F)C(=O)[C@]1(O)CCN(c3ccc4ncsc4c3)C1=N2 [BPN-0027196] | 94.9% | 7.1% | >99% |  | NMII-sel | 12 µM
Cc1cc2c(cc1F)C(=O)[C@]1(O)CCN(c3ccc4ncccc4c3)C1=N2 [BPN-0027197] | >99% | 36.4% | >99% |  | NMII-sel | 2.4 µM
Cc1nc2cc(N3CC[C@@]4(O)C(=O)c5cc(F)c(C)cc5N=C34)ccc2o1 [BPN-0027198] | 89.9% | 21.4% | >99% | 10.5 µM | 3.6 | 0.88 µM
Cc1nc2ccc(N3CC[C@@]4(O)C(=O)c5cc(C)c(C)cc5N=C34)cc2o1 [BPN-0027213] | 46.3% | 1.0% | 85.0% | 33 µM | 11.4 | 0.45 µM
Cc1cc2c(cc1C)C(=O)[C@]1(O)CCN(c3ccc4ncccc4c3)C1=N2 [BPN-0027215] | 73.2% | 9.2% | 97.3% |  | NMII-sel | 1 µM
Cc1cc2c(s1)N=C1N(c3ccc4ncccc4c3)CC[C@@]1(O)C2=O [BPN-0027216] | 97.2% | 85.0% | >99% | 31 µM | 11.5 | 4.6 µM
CCc1cc2c(s1)N=C1N(c3ccc4ncccc4c3)CC[C@@]1(O)C2=O [BPN-0027217] | 97.9% | 76.0% | >99% | 160 µM | 20.5 | 21 µM
O=C1c2cc(C(F)(F)F)ccc2N=C2N(c3ccc4ncccc4c3)CC[C@@]12O [BPN-0027218] | 90.0% | 4.4% | 95.5% |  | NMII-sel | 40 µM
Cc1cc2c(cc1C)C(=O)[C@]1(O)CCN(c3ccc4ncncc4c3)C1=N2 [BPN-0027228] | >99% | 89.1% | >99% | 300 µM | 10.7 | 4.6 µM
N#Cc1ccc(N2CC[C@@]3(O)C(=O)c4c(sc5c4CCCC5)N=C23)cc1 [BPN-0027236] | >99% | 84.9% | >99% |  | NMII-sel | 5 µM
Cc1cc(N2CC[C@@]3(O)C(=O)c4cc(C(F)(F)F)ccc4N=C23)on1 [BPN-0027237] | 79.8% | 15.8% | 82.7% | 50 µM | 4.5 | 6.7 µM
Cc1sc2c(c1C)C(=O)[C@]1(O)CCN(c3ccc(C#N)c(Cl)c3)C1=N2 [BPN-0027238] | >99% | >99% | >99% |  | NMII-sel | 3.7 µM
